Patent publication US11987586B1 (TAKEDA PHARMACEUTICAL COMPANY LIMITED, priority 2022, dated 2024)

The molecules below were run against T1, human OX2 receptor (Homo sapiens, UniProt O43614) (assay: Measurement of orexin type 2 receptor agonist activity (calcium fluorescence, Fluo-4, FDSS)). Details: 3 uM test compound; CHO cells expressing human OX2 receptor; DMSO = 0%, 10 nM orexin A (human) = 100%.
T1 construct: expressed in transfected cells
T1 sequence (O43614 1-444): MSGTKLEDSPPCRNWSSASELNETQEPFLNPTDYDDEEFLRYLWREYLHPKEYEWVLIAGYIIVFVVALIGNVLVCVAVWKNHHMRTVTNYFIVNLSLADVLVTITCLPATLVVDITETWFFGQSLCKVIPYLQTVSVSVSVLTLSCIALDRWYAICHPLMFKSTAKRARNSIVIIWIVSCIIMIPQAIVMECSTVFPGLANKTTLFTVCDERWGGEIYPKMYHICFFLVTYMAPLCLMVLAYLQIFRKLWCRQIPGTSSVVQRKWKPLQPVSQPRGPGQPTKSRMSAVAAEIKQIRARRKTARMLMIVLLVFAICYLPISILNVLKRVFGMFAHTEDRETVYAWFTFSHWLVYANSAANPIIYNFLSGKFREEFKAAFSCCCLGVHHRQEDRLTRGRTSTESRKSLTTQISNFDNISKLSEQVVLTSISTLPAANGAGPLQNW
Type: cell-based
Procedure, shortened: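 CHO-K1 cells stably expressing human OX2 receptor (residues 1-444) were loaded with Fluo-4 AM plus probenecid. Calcium fluorescence after compound addition was recorded for 1 min 40 s. Activity (%) was scaled between DMSO (0%) and 10 nM orexin A final (100%).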
`CCS(=O)(=O)N[C@@H]1CN2C(=O)N(c3noc4cc(F)cc(-c5c(F)cc(F)cc5F)c34)C[C@@H]2C1(F)F` [Example 124, N-{(6R,7aR)-7,7-Difluoro-2-[6-fluoro-4-(2,4,6-trifluorophenyl)-1,2-benzoxazol-3-yl]-3-oxohexahydro-1H-pyrrolo[1,2-c]imidazol-6-yl}ethanesulfonamide] was tested, and the “OX2R agonist activity (3 uM, %)” value was 101%. For `Cc1cc(-c2c(F)cccc2F)c2c(N3C[C@H]4N(C[C@@H](NS(C)(=O)=O)C4(F)F)C3=O)noc2c1` [Example 126, N-{(6R,7aR)-2-[4-(2,6-Difluorophenyl)-6-methyl-1,2-benzoxazol-3-yl]-7,7-difluoro-3-oxohexahydro-1H-pyrrolo[1,2-c]imidazol-6-yl}methanesulfonamide], the “OX2R agonist activity (3 uM, %)” value was 97%. With `Cc1cc(-c2c(F)cc(F)cc2F)c2c(-n3cc4n(c3=O)C[C@@H](NS(C)(=O)=O)C4(F)F)noc2c1` [Example 127, N-{(6R)-7,7-difluoro-2-[6-methyl-4-(2,4,6-trifluorophenyl)-1,2-benzoxazol-3-yl]-3-oxo-2,5,6,7-tetrahydro-3H-pyrrolo[1,2-c]imidazol-6-yl}methanesulfonamide] the “OX2R agonist activity (3 uM, %)” value was 102%. For `CS(=O)(=O)N[C@@H]1Cn2c(cn(-c3noc4cc(CO)cc(-c5c(F)cc(F)cc5F)c34)c2=O)C1(F)F` [Example 128, N-{(6R)-7,7-difluoro-2-[6-(hydroxymethyl)-4-(2,4,6-trifluorophenyl)-1,2-benzoxazol-3-yl]-3-oxo-2,5,6,7-tetrahydro-3H-pyrrolo[1,2-c]imidazol-6-yl}methanesulfonamide], the “OX2R agonist activity (3 uM, %)” value was 98%. For `CS(=O)(=O)N[C@@H]1Cn2c(cn(-c3noc4cc(C(F)(F)F)cc(-c5c(F)cc(F)cc5F)c34)c2=O)C1(F)F` [Example 130, N-{(6R)-7,7-difluoro-3-oxo-2-[6-(trifluoromethyl)-4-(2,4,6-trifluorophenyl)-1,2-benzoxazol-3-yl]-2,5,6,7-tetrahydro-3H-pyrrolo[1,2-c]imidazol-6-yl}methanesulfonamide], the “OX2R agonist activity (3 uM, %)” value was 99%. For `COCc1cc(-c2c(F)cccc2F)c2c(-n3cc4n(c3=O)C[C@@H](NS(C)(=O)=O)C4(F)F)noc2c1` [Example 132, N-{(6R)-2-[4-(2,6-difluorophenyl)-6-(methoxymethyl)-1,2-benzoxazol-3-yl]-7,7-difluoro-3-oxo-2,5,6,7-tetrahydro-3H-pyrrolo[1,2-c]imidazol-6-yl}methanesulfonamide], the “OX2R agonist activity (3 uM, %)” value was 94%. `CS(=O)(=O)N[C@@H]1Cn2c(cn(-c3noc4cc(F)c(F)c(-c5c(F)cc(F)cc5F)c34)c2=O)C1(F)F` [Example 135, N-{(6R)-2-[5,6-difluoro-4-(2,4,6-trifluorophenyl)-1,2-benzoxazol-3-yl]-7,7-difluoro-3-oxo-2,5,6,7-tetrahydro-3H-pyrrolo[1,2-c]imidazol-6-yl}methanesulfonamide] was tested, and the “OX2R agonist activity (3 uM, %)” value was 100%. In the case of `CS(=O)(=O)N[C@@H]1Cn2c(cn(-c3noc4cc(C(F)F)cc(-c5c(F)cccc5F)c34)c2=O)C1(F)F` [Example 136, N-{(6R)-2-[6-(difluoromethyl)-4-(2,6-difluorophenyl)-1,2-benzoxazol-3-yl]-7,7-difluoro-3-oxo-2,5,6,7-tetrahydro-3H-pyrrolo[1,2-c]imidazol-6-yl}methanesulfonamide], the “OX2R agonist activity (3 uM, %)” value is reported as 99%. In the case of `CNS(=O)(=O)N[C@@H]1Cn2c(cn(-c3noc4cc(F)cc(-c5c(F)cc(F)cc5F)c34)c2=O)C1(F)F` [Example 139, N-{(6R)-7,7-difluoro-2-[6-fluoro-4-(2,4,6-trifluorophenyl)-1,2-benzoxazol-3-yl]-3-oxo-2,5,6,7-tetrahydro-3H-pyrrolo[1,2-c]imidazol-6-yl}-N′-methylsulfuric diamide], the “OX2R agonist activity (3 uM, %)” value is reported as 101%. `Cc1cc(-c2c(F)cc(F)cc2F)c2c(N3C[C@H]4N(C[C@@H](NS(C)(=O)=O)C4(F)F)C3=O)noc2c1` [Example 140, N-{(6R,7aR)-7,7-difluoro-2-[6-methyl-4-(2,4,6-trifluorophenyl)-1,2-benzoxazol-3-yl]-3-oxohexahydro-1H-pyrrolo[1,2-c]imidazol-6-yl}methanesulfonamide] was tested, and the “OX2R agonist activity (3 uM, %)” value was 100%. In the case of `CS(=O)(=O)N[C@@H]1Cn2c(cn(-c3noc4cc(C(F)F)cc(-c5c(F)cc(F)cc5F)c34)c2=O)C1(F)F` [Example 141, N-{(6R)-2-[6-(difluoromethyl)-4-(2,4,6-trifluorophenyl)-1,2-benzoxazol-3-yl]-7,7-difluoro-3-oxo-2,5,6,7-tetrahydro-3H-pyrrolo[1,2-c]imidazol-6-yl}methanesulfonamide], the “OX2R agonist activity (3 uM, %)” value is reported as 94%. For `CNS(=O)(=O)N[C@@H]1CN2C(=O)N(c3noc4cc(F)cc(-c5c(F)cc(F)cc5F)c34)C[C@@H]2C1(F)F` [Example 144, N-{(6R,7aR)-7,7-Difluoro-2-[6-fluoro-4-(2,4,6-trifluorophenyl)-1,2-benzoxazol-3-yl]-3-oxohexahydro-1H-pyrrolo[1,2-c]imidazol-6-yl}-N′-methylsulfuric diamide], the “OX2R agonist activity (3 uM, %)” value was 102%. With `CCOc1cc(-c2c(F)cccc2F)c2c(N3C[C@H]4N(C[C@@H](NS(C)(=O)=O)C4(F)F)C3=O)noc2c1` [Example 145, N-{(6R,7aR)-2-[4-(2,6-difluorophenyl)-6-ethoxy-1,2-benzoxazol-3-yl]-7,7-difluoro-3-oxohexahydro-1H-pyrrolo[1,2-c]imidazol-6-yl}methanesulfonamide] the “OX2R agonist activity (3 uM, %)” value was 105%. `CCS(=O)(=O)N[C@H]1Cc2cn(-c3nsc4nc(C)cc(-c5c(F)cccc5F)c34)c(=O)n2C1` [Example 152, N-{(6S)-2-[4-(2,6-difluorophenyl)-6-methyl[1,2]thiazolo[5,4-b]pyridin-3-yl]-3-oxo-2,5,6,7-tetrahydro-3H-pyrrolo[1,2-c]imidazol-6-yl}ethanesulfonamide] was tested, and the “OX2R agonist activity (3 uM, %)” value was 92%. `CCS(=O)(=O)N[C@@H]1CN2C(=O)N(c3noc4cc(C)cc(-c5c(F)cc(F)cc5F)c34)C[C@@H]2C1(F)F` [Example 153, N-{(6R,7aR)-7,7-difluoro-2-[6-methyl-4-(2,4,6-trifluorophenyl)-1,2-benzoxazol-3-yl]-3-oxohexahydro-1H-pyrrolo[1,2-c]imidazol-6-yl}ethanesulfonamide] was tested, and the “OX2R agonist activity (3 uM, %)” value was 96%. `CCS(=O)(=O)N[C@@H]1CN2C(=O)N(c3noc4cc(C)cc(-c5c(F)cccc5F)c34)C[C@@H]2C1(F)F` [Example 154, N-{(6R,7aR)-2-[4-(2,6-difluorophenyl)-6-methyl-1,2-benzoxazol-3-yl]-7,7-difluoro-3-oxohexahydro-1H-pyrrolo[1,2-c]imidazol-6-yl}ethanesulfonamide] was tested, and the “OX2R agonist activity (3 uM, %)” value was 98%. With `CCS(=O)(=O)N[C@@H]1Cn2c(cn(-c3noc4cc(C)cc(-c5c(F)cc(F)cc5F)c34)c2=O)C1(F)F` [Example 155, N-{(6R)-7,7-difluoro-2-[6-methyl-4-(2,4,6-trifluorophenyl)-1,2-benzoxazol-3-yl]-3-oxo-2,5,6,7-tetrahydro-3H-pyrrolo[1,2-c]imidazol-6-yl}ethanesulfonamide] the “OX2R agonist activity (3 uM, %)” value was 96%. `CCS(=O)(=O)N[C@@H]1Cn2c(cn(-c3noc4cc(C)cc(-c5c(F)cccc5F)c34)c2=O)C1(F)F` [Example 156, N-{(6R)-2-[4-(2,6-difluorophenyl)-6-methyl-1,2-benzoxazol-3-yl]-7,7-difluoro-3-oxo-2,5,6,7-tetrahydro-3H-pyrrolo[1,2-c]imidazol-6-yl}ethanesulfonamide] was tested, and the “OX2R agonist activity (3 uM, %)” value was 102%. For `CCS(=O)(=O)N[C@@H]1Cn2c(cn(-c3noc4cc(C(F)(F)F)cc(-c5c(F)cc(F)cc5F)c34)c2=O)C1(F)F` [Example 157, N-{(6R)-7,7-difluoro-3-oxo-2-[6-(trifluoromethyl)-4-(2,4,6-trifluorophenyl)-1,2-benzoxazol-3-yl]-2,5,6,7-tetrahydro-3H-pyrrolo[1,2-c]imidazol-6-yl}ethanesulfonamide], the “OX2R agonist activity (3 uM, %)” value was 96%. In the case of `CCOc1cc(-c2c(F)cc(F)cc2F)c2c(N3C[C@H]4N(C[C@@H](NS(C)(=O)=O)C4(F)F)C3=O)noc2c1` [Example 160, N-{(6R,7aR)-2-[6-ethoxy-4-(2,4,6-trifluorophenyl)-1,2-benzoxazol-3-yl]-7,7-difluoro-3-oxohexahydro-1H-pyrrolo[1,2-c]imidazol-6-yl}methanesulfonamide], the “OX2R agonist activity (3 uM, %)” value is reported as 99%. With `CCS(=O)(=O)N[C@@H]1CN2C(=O)N(c3noc4cc(C)c(F)c(-c5c(F)cc(F)cc5F)c34)C[C@@H]2C1(F)F` [Example 162, N-{(6R,7aR)-7,7-difluoro-2-[5-fluoro-6-methyl-4-(2,4,6-trifluorophenyl)-1,2-benzoxazol-3-yl]-3-oxohexahydro-1H-pyrrolo[1,2-c]imidazol-6-yl}ethanesulfonamide] the “OX2R agonist activity (3 uM, %)” value was 102%. With `CCS(=O)(=O)N[C@@H]1Cn2c(cn(-c3noc4cc(C)c(F)c(-c5c(F)cc(F)cc5F)c34)c2=O)C1(F)F` [Example 163, N-{(6R)-7,7-difluoro-2-[5-fluoro-6-methyl-4-(2,4,6-trifluorophenyl)-1,2-benzoxazol-3-yl]-3-oxo-2,5,6,7-tetrahydro-3H-pyrrolo[1,2-c]imidazol-6-yl}ethanesulfonamide] the “OX2R agonist activity (3 uM, %)” value was 103%.
